In US10844052B2, “LLS compounds for treatment of cancer” (THE REGENTS OF THE UNIVERSITY OF CALIFORNIA, priority 2016, dated 2020):
pIC50: −log10 of the molar value.

Assays:
SKOV3 cells = assay: In vitro combination of LLS2 with paclitaxel on SKOV3 cells; format: cell-based
Description: C.I.<0.9 indicates synergism, C.I.=0.9-1.10 indicates additive interaction, and C.I.>1.1 indicates antagonism.
The synergistic effects of LLS2 with current chemotherapeutic drugs including docetaxel, paclitaxel, 5-Fu, oxaliplatin, carboplatin, doxorubicin and gemcitabine were examined in vitro.

[1] = system: prostate cancer PC3 cancer cells
SKOV3 = assay: Anti-cancer activity against ovarian cancer cells SKOV3 (cell killing in solution / in vitro cell proliferation); format: cell-based
Description: (§1) Biotinylated LLS2 was synthesized in solution and loaded it onto a streptavidin-coated plate. The biotinylated LLS2 immobilized on the plate killed approximately 21% of SKOV3 ovarian cancer cells at 100 μM loading, 16% at 50 μM and 14% at 25 μM (FIG. 4). The killing effect of the LLS2 compound was also tested in solution. […] In addition, LLS2 can kill pancreatic cancer cell line XPA3, prostate cancer cell line PC3, colon cancer cell line HT29, breast cancer cell line MCF7 and lung cancer cell line A549 (FIG. 4).

PC3 = assay: In vitro cell proliferation / killing assay on PC3 prostate cancer cells; format: cell-based
Description: as §1

XPA3 = assay: Cell killing by soluble LLS2, pancreatic cancer cell line XPA3; format: cell-based
Description: as §1

HT29 = assay: Cell killing by soluble LLS2, colon cancer cell line HT29; format: cell-based
Description: as §1

MCF7 = assay: Cell killing by soluble LLS2, breast cancer cell line MCF7; format: cell-based
Description: as §1

A549 = assay: Cell killing by soluble LLS2, lung cancer cell line A549; format: cell-based
Description: as §1

SKOV3 xenograft tumors = assay: SKOV3 xenograft in nude mice, LLS2 alone or with paclitaxel; format: in vivo
Description: Briefly, 2.5×10^6 SKOV3 cells were subcutaneously injected to the right side of the dorsal flank of the female congenital athymic BALB/c nude mice. The tumors were allowed to grow to about 100 mm^3.
Then, mice were randomly divided into control and treatment groups (n=5). Mice were given a daily I.V. administration for 5 successive days.
SKOV3 ovarian cancer cells were subcutaneously injected on the dorsal flanks of mice.

galectin-1 = target: T1, galectin-1 (Homo sapiens, UniProt P09382); assay: Pull-down with biotinylated LLS2, LC MS/MS and anti-galectin-1 immunoblot; format: binding; settings: biotinylated LLS2, cell membrane protein preparation
T1 construct: endogenous in cells
T1 sequence (P09382 whole entry): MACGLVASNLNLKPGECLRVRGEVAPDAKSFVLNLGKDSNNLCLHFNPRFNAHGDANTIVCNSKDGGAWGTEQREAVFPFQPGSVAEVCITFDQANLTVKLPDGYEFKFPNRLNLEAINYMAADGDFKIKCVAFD
Description: LLS2 was biotinylated, incubated with a cell membrane protein preparation, and bound proteins were pulled down with immobilized streptavidin resin. The bound proteins were eluted and subjected to identification by LC MS/MS. The MS result identified galectin-1 as the putative target protein of LLS2 (FIG. 8a). The identity of galectin-1 as the target protein of LLS2 was confirmed by immunoblot analysis of proteins eluted from (i) blank streptavidin-beads, (ii) biotin-LLS2/streptavidin beads, and (iii) biotinylated unrelated small molecule/streptavidin beads, using anti-galectin-1 antibody as the western blot probe (FIG. 8b).

GFP-H-Ras(12V) = assay: H-Ras localization (real time confocal) and membrane-associated H-Ras immunoblot; format: cell-based
Description: (§2) (b) Once activated by EGF, H-Ras will be partially trafficked to the plasma membrane leading to the activation of Erk pathway. […] (c) Quantification of membrane associated H-Ras (active form) by immunoblot analysis after treatment with buffer (−) or LLS2 (+), showing that LLS2 was able to lower the level of membrane-associated H-Ras. (d) LLS2 also miscolocalized the EGF-stimulated K-Ras(G12V) but not N-Ras(Q61D).
(§3) LLS2 treatment also miscolocalizes the EGF-stimulated K-Ras(G12V), whereas the localization of EGF-stimulated N-Ras(Q61D) is not changed (FIG. 9d). […] Without being bound to any particular theory, this implies that LLS2 induces cell death through suppression of the RAS-ERK pathway.

K-Ras(G12V) = K-Ras(G12V) localization and Ras activity assay; format: cell-based
Description: as §2, §3

N-Ras(Q61D) = N-Ras(Q61D) localization; format: cell-based
Description: as §2, §3

[2] = system: phospho-MEK and phospho-ERK; assay: Expression level of phospho-MEK and phospho-ERK after LLS2; format: cell-based; settings: treatment for 2 hours
Description: as §2, §3

[3] = system: Human umbilical vascular endothelial cells (HUVECs); assay: HUVEC tube-formation assay on Matrigel-coated plates; format: cell-based
Description: Human umbilical vascular endothelial cells (HUVECs) we used for tube-formation assays on Matrigel-coated plates as shown in FIG. 10. The expression level of secreted gal-1 in 6 different cancer cell lines was determined using ELISA assay.

[4] = system: PC3 prostate cancer cells; assay: Cell viability of prostate cancer PC3 cells after 72 hours treatment; format: cell-based; settings: Homo sapiens
Description: Effects of compounds LLS42-LLS80 on the viability of PC3 prostate cancer cells after 72 hours of treatment are shown in Table 2 below: […]

[5] = system: 22RV1 prostate cancer cells; assay: Cell viability of prostate cancer 22RV1 cells after 72 hours treatment; format: cell-based; settings: Homo sapiens
PC3 tumor = assay: In vivo efficacy study of LLS30 on PC3 tumor
[6] = system: sNF96.2 malignant peripheral nerve sheath tumor (MPNST) cells; assay: Cytotoxicity against sNF96.2 MPNST cells; format: cell-based
Description: (§4) The biochemical and biological effects of LLS30 on sNF96.2 and sNF2.2 malignant peripheral nerve sheath tumor (MPNST) cells were evaluated.

[7] = system: sNF2.2 malignant peripheral nerve sheath tumor (MPNST) cells; assay: Cytotoxicity and PTX combination on sNF2.2 MPNST cells; format: cell-based
Description: as §4

ERK phosphorylation = assay: Phosphorylation of ERK / MEK/ERK pathway in MPNST cells; format: cell-based
Description: (b) LLS30 exerts death on MPNST cells.
as §4

[8] = Combination of LLS30 with Enzalutamide; format: cell-based
[9] = Homo sapiens, SK-OV-3, ovarian cancer cells SKOV3

CC(=O)O[C@H]1C(=O)[C@@]2(C)[C@H]([C@H](OC(=O)c3ccccc3)[C@]3(O)C[C@H](OC(=O)[C@H](O)[C@@H](NC(=O)c4ccccc4)c4ccccc4)C(C)=C1C3(C)C)[C@]1(OC(C)=O)CO[C@@H]1C[C@@H]2O [Paclitaxel, reference compound]
cytotoxicity, single agent (SKOV3 cells; SKOV3 cells, at particular concentrations): little effect | cytotoxicity, single agent [1]: moderate cytotoxicity

CC(=O)OCCN(CCOC(C)=O)c1ccc(-c2nc3cc(C(CC(N)=O)NC(=O)[C@@H](N)Cc4ccc(Cl)c(Cl)c4)ccc3n2Cc2ccc(F)c(F)c2)cc1 (stereo partly drawn) [LLS2, ((4-(5-(3-amino-1-((S)-2-amino-3-(3,4-dichlorophenyl)propanamido)-3-oxopropyl)-1-(3,4-difluorobenzyl)-1H-benzo[d]imidazol-2-yl)phenyl)azanediyl)bis(ethane-2,1-diyl) Diacetate]
IC50 (SKOV3; [9]): 15.7 µM | IC50 (SKOV3; ovarian cancer cells SKOV3): 18.7 µM | cell killing (PC3; prostate cancer cell line PC3): can kill | cell killing (XPA3): can kill | cell killing (HT29): can kill | cell killing (MCF7): can kill | cell killing (A549): can kill | anti-proliferation effect of combined treatment with paclitaxel (SKOV3 cells; SKOV3, LLS2 + paclitaxel): much stronger anti-proliferation effects | apoptosis after combined LLS2/paclitaxel treatment (SKOV3 cells; SKOV3 cells, 24 hours): Increased apoptosis | tolerability (body weight) (SKOV3 xenograft tumors; LLS2/paclitaxel combination regimen, nude mice): tolerable and without significant side effects | tumor size and weight (SKOV3 xenograft tumors; LLS2 alone, daily I.V. for 5 successive days, SKOV3 xenograft): smaller tumor size | tumor growth (SKOV3 xenograft tumors; combination LLS2/paclitaxel compared to either alone, SKOV3 xenograft): significant suppression of tumor growth | target protein identified by pull-down / immunoblot (galectin-1): target protein of LLS2 was indeed galectin-1 | membrane-localized H-Ras (GFP-H-Ras(12V); 25 μM, 15 mins treatment, EGF-activated): loss of membrane-localized H-Ras | localization of EGF-stimulated GFP-H-Ras(12V) (GFP-H-Ras(12V); 25 μM, 30 min): mis-localizes to intracellular compartments | membrane-associated H-Ras (GFP-H-Ras(12V); LLS2-treated vs non-treated MDCK cells): significant down-expression of H-Ras | localization of EGF-stimulated K-Ras(G12V) (K-Ras(G12V)): miscolocalizes | EGF-stimulated levels of K-Ras-GTP (K-Ras(G12V); Ras activity assays): decreases | localization of EGF-stimulated N-Ras(Q61D) (N-Ras(Q61D)): not changed | expression level of phospho-MEK and phospho-ERK [2]: down-regulated | angiogenic effect of added gal-1 [3]: inhibited | tube-formation activity of PC3 conditioned medium ([3]; 10 μM): neutralized | anti-proliferation effect of combined treatment with paclitaxel ([1]; PC3, LLS2 + paclitaxel): much stronger anti-proliferation effects

NC(=O)CC(NCc1ccc(Cl)c(Cl)c1)c1ccc2c(c1)nc(-c1ccc(N(CCO)CCO)cc1)n2Cc1ccc(Cl)c(Cl)c1 (stereo not shown) [LLS30, 3-(2-(4-(bis(2-hydroxyethyl)amino)phenyl)-1-(3,4-dichlorobenzyl)-1H-benzo[d]imidazol-5-yl)-3-((3,4-dichlorobenzyl)amino)propanamide]
IC50 (SKOV3; [9]): 10.2 µM | potency relative to LLS2 (SKOV3; in vitro cell proliferation assays): about 2 fold | pIC50 (PC3; Homo sapiens, PC-3): 5.04 | viability at 2.5 µM ([4]; PC-3, 2.5 μM): 100% | viability at 5 µM ([4]; PC-3, 5 μM): 95% | viability at 10 µM ([4]; PC-3, 10 μM): 73% | viability at 20 µM ([4]; PC-3, 20 μM): 10% | viability at 2.5 µM ([5]; 2.5 μM): 47% | viability at 5 µM ([5]; 5 μM): 3% | viability at 10 µM ([5]; 10 μM): 0% | growth of PC3 tumor (PC3 tumor; 10 mg/kg, i.v. q3d×4): significantly suppressed | Ki-67 in tumor (PC3 tumor; LLS30-treated tumor): down-regulated | cleaved caspase-3 in tumor (PC3 tumor; LLS30-treated tumor): more cleaved caspase-3 positive cells | PC3 tumor response, combination with PTX (PC3 tumor; LLS30 with PTX, i.v. q3d×4): tumor regression | CBC, platelets, liver function tests and renal panel (PC3 tumor; after 4 courses of treatment): remained within normal limits | histological analysis of the resected tumor (PC3 tumor; necrotic cells): many necrotic cells were present | pIC50 [6]: 4.80 | pIC50 [7]: 4.59 | C.I. (combination index) with PTX ([7]; LLS30 with PTX): 0.1 | MEK/ERK pathway (ERK phosphorylation; 2 μM, MPNST cells (FIG. 12 legend)): suppresses | Phosphorylation of ERK (ERK phosphorylation; 24 hrs treatment, 25 μM, MPNST cells): totally suppressed | anti-cancer effect in combination with Enzalutamide [8]: synergistic anti-cancer effect

CC(=O)OCCN(CCO)c1ccc(-c2nc3cc(C(CC(N)=O)NCc4ccc(Cl)c(Cl)c4)ccc3n2CC23CC4CC(CC(C4)C2)C3)cc1 (stereo not shown) [LLS32, 2-((4-(1-(((1s,3s)-adamantan-1-yl)methyl)-5-(3-amino-1-((3,4-dichlorobenzyl)amino)-3-oxopropyl)-1H-benzo[d]imidazol-2-yl)phenyl)(2-hydroxyethyl)amino)ethyl Acetate]
IC50 (SKOV3; [9]): 10.4 µM

CC(=O)OCCN(CCOC(C)=O)c1ccc(-c2nc3cc(C(CC(N)=O)NCc4ccc(Cl)c(Cl)c4)ccc3n2Cc2ccc(F)c(F)c2)cc1 (stereo not shown) [LLS17, ((4-(5-(3-amino-1-((3,4-dichlorobenzyl)amino)-3-oxopropyl)-1-(3,4-difluorobenzyl)-1H-benzo[d]imidazol-2-yl)phenyl)azanediyl)bis(ethane-2,1-diyl) Diacetate]
IC50 (SKOV3; [9]): 10.6 µM

NC(=O)CC(NCc1ccc(Cl)c(Cl)c1)c1ccc2c(c1)nc(-c1ccc(N(CCO)CCO)cc1)n2Cc1ccc(F)c(F)c1 (stereo not shown) [LLS19, 3-(2-(4-(bis(2-hydroxyethyl)amino)phenyl)-1-(3,4-difluorobenzyl)-1H-benzo[d]imidazol-5-yl)-3-((3,4-dichlorobenzyl)amino)propanamide]
IC50 (SKOV3; [9]): 16.8 µM

NC(=O)CC(NCc1ccc(Cl)c(Cl)c1)c1ccc2c(c1)nc(-c1ccc(-c3cccc(CO)n3)cc1)n2CC12CC3CC(CC(C3)C1)C2 (stereo not shown) [LLS7, 3-(1-(((1s,3s)-adamantan-1-yl)methyl)-2-(4-(6-(hydroxymethyl)pyridin-2-yl)phenyl)-1H-benzo[d]imidazol-5-yl)-3-((3,4-dichlorobenzyl)amino)propanamide]
IC50 (SKOV3; [9]): > 50 µM

NC(=O)CC(NCc1ccc(Cl)c(Cl)c1)c1ccc2c(c1)nc(-c1ccc(N(CCO)CCO)cc1)n2Cc1ccc(C(F)(F)F)c(F)c1 (stereo not shown) [LLS27, 3-(2-(4-(bis(2-hydroxyethyl)amino)phenyl)-1-(3-fluoro-4-(trifluoromethyl)benzyl)-1H-benzo[d]imidazol-5-yl)-3-((3,4-dichlorobenzyl)amino)propanamide]
IC50 (SKOV3; [9]): > 50 µM

NC(=O)CC(NC(=O)[C@@H](N)Cc1ccc(F)c(F)c1)c1ccc2c(c1)nc(-c1ccc(N(CCO)CCO)cc1)n2Cc1ccc(F)c(F)c1 (stereo partly drawn) [LLS18, (2S)-2-amino-N-(3-amino-1-(2-(4-(bis(2-hydroxyethyl)amino)phenyl)-1-(3,4-difluorobenzyl)-1H-benzo[d]imidazol-5-yl)-3-oxopropyl)-3-(3,4-difluorophenyl)propanamide]
IC50 (SKOV3; [9]): > 50 µM

CC(=O)OCCN(CCOC(C)=O)c1ccc(CNC(CC(N)=O)c2ccc3c(c2)nc(-c2ccc(N(CCOC(C)=O)CCOC(C)=O)cc2)n3Cc2ccc(Cl)c(Cl)c2)cc1 (stereo not shown) [LLS37, ((4-(5-(3-amino-1-((4-(bis(2-acetoxyethyl)amino)benzyl)amino)-3-oxopropyl)-1-(3,4-dichlorobenzyl)-1H-benzo[d]imidazol-2-yl)phenyl)azanediyl)bis(ethane-2,1-diyl) Diacetate]
IC50 (SKOV3; [9]): > 50 µM

CC(=O)OCCN(CCO)c1ccc(-c2nc3cc(C(CC(N)=O)NCc4ccc(Cl)c(Cl)c4)ccc3n2Cc2ccc(OC(F)(F)F)cc2)cc1 (stereo not shown) [LLS35, 2-((4-(5-(3-amino-1-((3,4-dichlorobenzyl)amino)-3-oxopropyl)-1-(4-(trifluoromethoxy)benzyl)-1H-benzo[d]imidazol-2-yl)phenyl)(2-hydroxyethyl)amino)ethyl Acetate]
IC50 (SKOV3; [9]): 10.8 µM
